Values joined by “and” are separate entries in the source; they are usually repeats but may differ in a detail not shown here. Identical values can stand only once.
Experiment: xn = mol fraction of the nth substance listed
Details: 101 kPa

Compound	electrical conductivity (288.15 K, x2 = 0) [S/m]	viscosity (288.15 K, x2 = 0) [mPa·s]	electrical conductivity (298.15 K, x2 = 0) [S/m]	electrical conductivity (308.15 K, x2 = 0) [S/m]	electrical conductivity (288.15 K, x1 = 0.0001)	electrical conductivity (298.15 K, x1 = 0.0001)	viscosity (298.15 K, x1 = 0.0001)	electrical conductivity (308.15 K, x1 = 0.0001) [S/m]	viscosity (308.15 K, x1 = 0.0001) [mPa·s]
O + CCCC[n+]1ccn(C)c1.[Br-]	0.0001	1.133	0.0001	0.0002					
CCCC[n+]1ccn(C)c1.[Br-] + O					0.0311 S/m and 0.0454 S/m and 0.0612 S/m	0.0389 S/m and 0.0568 S/m and 0.0759 S/m	0.892 mPa·s and 0.894 mPa·s	0.069	0.731

From a compilation of properties of binary mixtures (doi:10.1016/j.molliq.2017.08.056)
